The record followed here is PMC4945466 (Journal of medicinal chemistry, 2016).

The subject of data set [1] is HIV-1 IIIB in CEM-SS cells. The data set is described as follows: microbe, parasite or virus in culture. In kind it is cell-based. The following applies: for Antiviral Screening (10 μM) CPE reduction %: HIV-1 IIIB in CEM-SS cells, versus viral control.
For data set [2], the target named is recombinant HIV-1 IN (integrase strand transfer) (Human immunodeficiency virus type 1 group M subtype B, UniProt P04585). The data set is described as follows: INST biochemical assay.
For the next data set, the system named is CEM-SS cells. The data set is described as follows: Cell viability / cytotoxicity in cytoprotection assay. In kind it is cell-based.
Test in data set [3]: as above
The following applies: human. It is filed as cell-based.

Where [4] appears, read: read-out: INST IC50, mean ± SD, at least three independent experiments.

Read-outs that look alike come from different tables or passages of the source. Bounds are passed on as bounds.

“3-(Benzyloxy)-6-(ethylamino)-N-(4-fluorobenzyl)-N-methyl-2,4-dioxo-1,2,3,4-tetrahydropyrimidine-5-carboxamide [Compound 53]”: the “Antiviral Screening (10 μM) CPE reduction %” value in data set [1] amounted to 0%. The 50% inhibitory concentration (IC50) (commonly the concentration that gives 50% inhibition) in data set [2] (setting [4]) stood at 7 ± 3.3 µM. Also, the “Antiviral Screening (10 μM) viability %” value with CEM-SS cells (10 µM) is 89%.
Consider `CCNc1[nH]c(=O)n(O)c(=O)c1C(=O)NCc1ccc(Cl)c(F)c1` [Compound 44, N-(4-Chloro-3-fluorobenzyl)-1-(hydroxy)-4-(ethylamino)-1,2,3,6-tetrahydro-2,6-dioxopyrimidine-5-carboxamide], for which the “TI (therapeutic index, CC50/EC50)” value in data set [1] (cytoprotection assay, CEM-SS cells) amounted to 100.
Take `O=C(NCc1ccccc1)c1c(Nc2ccccc2)[nH]c(=O)n(O)c1=O` [Compound 24, N-Benzyl-1-(hydroxy)-1,2,3,6-tetrahydro-2,6-dioxo-4-(phenylamino)pyrimidine-5-carboxamide]: in data set [2], the IC50 is above 100 µM.
Regarding `CCNc1[nH]c(=O)n(O)c(=O)c1C(=O)Oc1ccccc1` [Compound 51, Phenyl-1-(hydroxy)-4-(ethylamino)-1,2,3,6-tetrahydro-2,6-dioxopyrimidine-5-carboxylate], the IC50 in data set [2] was above 100 µM.
As to `CCNc1[nH]c(=O)n(O)c(=O)c1C(=O)NCCCl` [Compound 50, 1-(Hydroxy)-N-(2-chloroethyl)-4-(ethylamino)-1,2,3,6-tetrahydro-2,6-dioxopyrimidine-5-carboxamide], in data set [2], the IC50 is above 100 µM.
Turning to `O=C(NCc1ccccc1)c1c(Nc2ccc(-c3ccccc3)cc2)[nH]c(=O)n(O)c1=O` [Compound 25, N-Benzyl-1-(hydroxy)-1,2,3,6-tetrahydro-2,6-dioxo-4-(biphenylamino)pyrimidine-5-carboxamide], the concentration for half-maximal inhibition (IC50) in data set [2] was above 100 µM.
Regarding `CCNc1[nH]c(=O)n(O)c(=O)c1C(=O)NCc1ccc(F)c(F)c1` [Compound 42, N-(3,4-difluorobenzyl)-1-(hydroxy)-4-(ethylamino)-1,2,3,6-tetrahydro-2,6-dioxopyrimidine-5-carboxamide], the “Antiviral Screening (10 μM) CPE reduction %” value in data set [1] is “inactive”. In addition, in the data set with CEM-SS cells (10 μM, CEM-SS cells, versus cell control), the “Antiviral Screening (10 μM) viability %” value was “cytotoxic”.
On to `CCNc1c(C(=O)NCc2ccc(F)cc2)c(=O)n(O)c(=O)n1C` [Compound 52, N-(4-Fluorobenzyl)-3-(hydroxy)-6-(ethylamino)-1,2,3,4-tetrahydro-1-methyl-2,4-dioxopyrimidine-5-carboxamide], for which, in data set [2], the IC50 was above 100 µM.
As for `O=C(NCc1ccccc1)c1c(O)n(O)c(=O)[nH]c1=O` [Compound 54, N-Benzyl-1,6-dihydroxy-2,4-dioxo-1,2,3,4-tetrahydropyrimidine-5-carboxamide], the inhibition at 10 µM in data set [1] (Human immunodeficiency virus 1, IIIB, CEM-SS, 144 h, read-out: Antiviral Screening (10 μM) CPE reduction %) is 26%. Also, the viability (usually a read-out of living cells in per cent, often relative to untreated cells) at 6 days, 10 µM in data set [3] worked out at 100%.
With “1-(Hydroxy)-1,2,3,6-tetrahydro-2,6-dioxo-4-(phenylamino)pyrimidine-5-carboxamide [Compound 49]”, the half-inhibitory concentration (IC50) in data set [2] (setting [4]) is above 100 µM.
